In US8680081B2, “Prophylactic treatment of migraine” (priority 2000, dated 2014):

Experiments:
[1] = Prophylactic treatment of migraine by regular administration, patient case reports; assay type: in vivo, human
Method: The method for prophylactic treatment includes regular administration of a therapeutically effective amount of a combination comprising a cyclooxygenase-2 inhibitor and acetylsalicylic acid or active derivative. Administration of the combination including a cyclooxygenase-2 inhibitor may include administration of one or more cyclooxygenase-2 inhibitors.
The combination is administered regularly, meaning that the combination is administered periodically or aperiodically over a period of several days or weeks, in an effort to prevent migraine attacks, and is not merely administered in response or reaction to migraine symptoms. Regular administration may include once-daily administration of each agent, administration on alternate days, or any other periodic or aperiodic schedule that is determined to be effective as a planned course of treatment for preventing migraine.
A patient with an established history of recurrent migraine was treated with a daily oral dose of 25 milligrams of VIOXX (rofecoxib tablets, Merck & Co, Inc., Whitehouse Station, N.J.). […]
A patient with an established history of recurrent migraine was treated with a daily oral dose of 200 milligrams of CELEBREX (celecoxib capsules, G.D. Searle & Co., Chicago, Ill.).
A patient with a well-established history of recurrent migraine attacks heralded by an aura of dysphasia (i.e., difficulty in finding words) begins taking 25-50 milligrams of rofecoxib at the onset of the dysphasic symptoms. […] Because they have lately suffered more than four migraine attacks per month, on the advice of their physician they continue daily dosing of 12.5-25 milligrams of rofecoxib over time. […]

[2] = Targeted prophylactic treatment of migraine before a time window, trigger or attack, patient case reports; assay type: in vivo, human
Text: In another embodiment, the invention provides a method for targeted prophylactic treatment of a migraine condition. The method includes determining a time window or selected time period in which a patient desires to be free from migraine; and administering to the patient, at a time prior to the determined time window, a therapeutically effective amount of a cyclooxygenase-2 inhibitor, either alone or in combination with acetylsalicylic acid or active derivative, to prevent or reduce migraine symptoms during the time window.
Prior to the determined time window, a therapeutically effective amount of a cyclooxygenase-2 inhibitor is administered to the patient. By “prior,” it is meant that the administration is temporally before the determined time window, but sufficiently close in time so that the prophylactic effect of the cyclooxygenase-2 inhibitor is experienced throughout most or all of the determined time window.
A patient with an established history of migraine brought on by glare associated with an ophthalmic operating room microscope was treated with 6 milligrams of IMITREX by injection (Glaxo Wellcome Inc.), and an oral dose of 12.5 to 25 milligrams of VIOXX (Merck & Co, Inc.) the night before a scheduled ophthalmic operation.
(§1) A patient with an established history of migraine brought on by glare associated with repeated use of a slit lamp biomicroscope was treated with an oral dose of 12.5 to 25 milligrams of VIOXX (Merck & Co, Inc.) the night before a scheduled clinic.
as §1, with “Inc.) and 325 milligrams aspirin (over-the-counter aspirin tablets)” for “Inc.)”
(§2) A patient with an established history of migraine brought on by occasional consumption of red wine (as a beverage or in a sauce or dressing) was treated with an oral dose of 12.5 to 25 milligrams of VIOXX (Merck & Co, Inc.) on the same day as such consumption before migraine attack symptoms are evident.
as §2, with “Inc.) and 162.5 milligrams aspirin (over-the-counter aspirin tablets)” for “Inc.)”
(§3) A patient with a well-established history of recurrent migraine attacks learns to recognize their prodromal symptoms of altered mood, irritability, fatigue, and craving for sweets which typically occur 3 to 24 hours prior to the fully developed phase of their migraine. They learn over time that these prodromal symptoms eventually lead to a migraine attack in most cases. Their migraine attacks typically include unusual sensitivity to light and sound, difficulty concentrating, headache, and less commonly, nausea. As soon as they recognize the prodromal symptoms, they take a one-time dose of 25-50 milligrams of rofecoxib, followed by 12.5-25 milligrams of rofecoxib daily.
as §3, with “rofecoxib and 162.5-325 milligrams aspirin,” for “rofecoxib,”, “rofecoxib and 162.5-325 milligrams aspirin” for “rofecoxib”, “daily. […]” for “daily.”

[3] = Example 1, daily oral 25 milligrams VIOXX, treatment period three to four weeks

Row | SMILES | intensity of the symptoms of a subsequent migraine ([1]; Example 4, daily oral 200 milligrams CELEBREX) | migraine symptoms ([1]; Example 4, daily oral 200 milligrams CELEBREX, treatment period ten to fourteen days) | migraine symptoms before, during and after the scheduled clinic ([2]; Example 6, glare-induced migraine, oral 12.5 to 25 milligrams VIOXX the night before) | duration of therapeutic benefit ([2]; Example 8, further daily oral 12.5 to 25 milligrams VIOXX after red wine) | migraine symptoms in the period when symptoms would normally be expected ([2]; Example 8, red wine-induced migraine, oral 12.5 to 25 milligrams VIOXX same day as consumption) | migraine attack symptoms ([2]; Example 10, at prodromal symptoms one-time 25-50 milligrams rofecoxib, then 12.5-25 milligrams daily) | period of benefit with continued daily dosing ([2]; Example 10, continued daily 12.5-25 milligrams rofecoxib) | intensity and length of the migraine attack symptoms ([2]; Example 12, 25-50 milligrams rofecoxib at onset of dysphasic aura) | migraine symptoms ([1]; Example 1, daily oral 25 milligrams VIOXX, first week of use) | frequency of migraine attacks [1, 3] | intensity of the symptoms of subsequent migraine attacks [1, 3] | frequency and intensity of the migraine attacks ([1]; Example 12, continued daily 12.5-25 milligrams rofecoxib)
1 | Cc1ccc(-c2cc(C(F)(F)F)nn2-c2ccc(S(N)(=O)=O)cc2)cc1 [CELEBREX, 4-[5-(4-methylphenyl)-3-(trifluoromethyl)-1H-pyrazol-1-yl]] | reduced intensity | free of migraine symptoms | – | – | – | – | – | – | – | – | – | –
2 | CS(=O)(=O)c1ccc(C2=C(c3ccccc3)C(=O)OC2)cc1 [VIOXX, 4-[4-(methylsulfonyl)phenyl]-3-phenyl-2(5H)-furanone] | – | – | free of migraine symptoms | extended for several days | either free of, or experienced substantially reduced, migraine symptoms | either free of, or has greatly reduced, migraine attack symptoms | several days (or longer) | reduction in the intensity and length | free of migraine symptoms | reduced frequency | reduced intensity | substantial decrease in the frequency and intensity
